From US10933061B2 (Shepherd Therapeutics, Inc., priority 2017, dated 2021)
Where “and” joins values, the source holds several entries; their conditions need not be identical. Equal values may be shown once. Read-outs that look alike come from different tables or passages of the source.

How the values were obtained:
Assay in all cases: Chou-Talalay combination assay, Cell Titer Glo
[1] = test system: Kato-III gastric carcinoma cells; assay type: cell-based; details: Kato-III; combination with pyrvinium pamoate; 72 hour incubation
Experimental: (§1) Following a 72 hour incubation, cell viability was determined using Cell Titer Glo.

[2] = test system: GIST-1 gastrointestinal stromal tumor cells; assay type: cell-based; details: 72 hour incubation; for CI range: combination with pyrvinium pamoate
Experimental: as §1

[3] = test system: TC-32 Ewing's sarcoma cells; assay type: cell-based; details: combination with pyrvinium pamoate, 72 hour incubation
Experimental: as §1

[4] = test system: UM-Chor1 chordoma cell line; assay type: cell-based; details: combination with pyrvinium pamoate, 72 hour incubation
Experimental: as §1

[5] = test system: Hs766t pancreatic carcinoma cells; assay type: cell-based; details: combination with pyrvinium pamoate, 72 hour incubation
Experimental: as §1

[6] = test system: Rh41 rhabdomyosarcoma cells; assay type: cell-based; details: combination with pyrvinium pamoate, 72 hour incubation
Experimental: as §1

[7] = test system: SNU-16 gastric carcinoma cells; assay type: cell-based; details: combination with pyrvinium pamoate, 72 hour incubation
Experimental: as §1

[8] = test system: SW13 adrenocortical carcinoma cells; assay type: cell-based; details: combination with pyrvinium pamoate, 72 hour incubation
Experimental: as §1

[9] = test system: HCT116 colorectal carcinoma cells; assay type: cell-based; details: combination with pyrvinium pamoate, 72 hour incubation
Experimental: as §1

[10] = test system: TFK-1 cholangiocarcinoma cells; assay type: cell-based; details: combination with pyrvinium pamoate, 72 hour incubation
Experimental: as §1

[11] = test system: SK-LMS-1 leiomyosarcoma cells; assay type: cell-based; details: combination with pyrvinium pamoate, 72 hour incubation
Experimental: as §1

[12] = test system: CCC-5 cholangiocarcinoma cells; assay type: cell-based; details: combination with pyrvinium pamoate, 72 hour incubation
Experimental: as §1

[13] = test system: Colo-205 colorectal carcinoma cells; assay type: cell-based; details: combination with pyrvinium pamoate, 72 hour incubation
Experimental: as §1

[14] = test system: COV362 ovarian carcinoma cells; assay type: cell-based; details: combination with pyrvinium pamoate, 72 hour incubation
Experimental: as §1

[15] = test system: BxPC-3 pancreatic carcinoma cells; details: combination with pyrvinium pamoate, 72 hour incubation
Experimental: as §1

[16] = test system: Flo-1 esophageal carcinoma cells; assay type: cell-based; details: combination with pyrvinium pamoate, 72 hour incubation
Experimental: as §1

[17] = test system: carcinoid tumor cell line STC-1; assay type: cell-based; details: combination with pyrvinium pamoate, 72 hour incubation
Experimental: as §1

[18] = test system: OE-33 esophageal carcinoma cells; assay type: cell-based; details: combination with pyrvinium pamoate, 72 hour incubation
Experimental: as §1

[19] = test system: NCI-H295R adrenocortical carcinoma cells; assay type: cell-based; details: combination with pyrvinium pamoate, 72 hour incubation
Experimental: as §1

[20] = test system: Rh30 rhabdomyosarcoma cells; assay type: cell-based; details: combination with pyrvinium pamoate, 72 hour incubation
Experimental: as §1

[21] = test system: TOV-112D ovarian carcinoma cells; assay type: cell-based; details: 72 hour incubation; for CI range: combination with pyrvinium pamoate
Experimental: as §1

[22] = test system: TC-71 Ewing's sarcoma cells; assay type: cell-based; details: combination with pyrvinium pamoate, 72 hour incubation
Experimental: as §1

[23] = test system: JU-77 mesothelioma cells; assay type: cell-based; details: combination with pyrvinium pamoate, 72 hour incubation
Experimental: as §1

[24] = test system: CHP-212 neuroblastoma cells; assay type: cell-based; details: combination with pyrvinium pamoate, 72 hour incubation
Experimental: as §1

[25] = test system: LO-68 mesothelioma cells; assay type: cell-based; details: combination with pyrvinium pamoate, 72 hour incubation
Experimental: as §1

[26] = test system: SK-N-AS neuroblastoma cells; assay type: cell-based
Experimental: as §1

[27] = test system: DMS-114 small cell lung carcinoma cells; assay type: cell-based; details: 72 hour incubation
Experimental: as §1

[28] = test system: SK-UT-1 leiomyosarcoma cells; assay type: cell-based; details: 72 hour incubation
Experimental: as §1

[29] = test system: SW-1271 small cell lung carcinoma cells; assay type: cell-based; details: 72 hour incubation
Experimental: as §1

[30] = test system: SK-UT-1B leiomyosarcoma cells; assay type: cell-based; details: combination with pyrvinium pamoate, 72 hour incubation
Experimental: as §1

[31] = SK-N-AS, combination with pyrvinium pamoate, 72 hour incubation
[32] = combination with pyrvinium pamoate

## O=c1[nH]cc(F)c(=O)[nH]1 [5-FU, 5-Fluorouracil]
[1]
  Synergy with pyrvinium pamoate: No
[2]
  CI range: 0.168-0.798
[3]
  CI range: 0.337-0.843
[4]
  CI range: 0.489-0.886
[5]
  CI range: 0.328-0.504 and 0.230-0.589
[6]
  CI range: 0.642-0.831
[7]
  CI range: 0.547-0.850
[8]
  CI range: 0.506-0.834
[9]
  CI range: 0.806-0.886
[10]
  CI range: 0.303-0.814
[11]
  CI range: 0.421-0.814
[12]
  CI range: 0.319-0.892
[13]
  CI range: 0.094-0.867
[14]
  CI range: 0.472-0.723
[15]
  CI range: 0.539-0.785
[16]
  CI range: 0.378-0.859
[17]
  CI range: 0.596-0.841
[18]
  CI range: 0.481-0.715
[19]
  CI range: 0.529-0.780
[20]
  CI range: 0.001-0.887
[21]
  Synergy with pyrvinium pamoate: No
[22]
  CI range: 0.409-0.821

## N.N.O=C([O-])C1(C(=O)[O-])CCC1.[Pt+2] [Carboplatin]
[1]
  CI range: 0.221-0.887
[2]
  Synergy with pyrvinium pamoate: No
[3]
  CI range: 0.101-0.836
[6]
  CI range: 0.162-0.820
[7]
  CI range: 0.267-0.860 and 0.261-0.842
[23]
  CI range: 0.385-0.853
[8]
  CI range: 0.408-0.891
[24]
  CI range: 0.519-0.846
[11]
  CI range: 0.366-0.812
[14]
  CI range: 0.447-0.837
[16]
  CI range: 0.253-0.892
[25]
  CI range: 0.410-0.801
[18]
  CI range: 0.647-0.863
[19]
  CI range: 0.190-0.896
[20]
  CI range: 0.770-0.821
[21]
  CI range: 0.506-0.845
[22]
  CI range: 0.597-0.878
[26]; [31]
  CI range: 0.107-0.843

## N.N.[Cl][Pt][Cl] [Cisplatin]
[1]
  CI range: 0.386-0.842
[27]; [32]
  CI range: 0.572-0.883
[2]
  CI range: 0.177-0.732
[28]
  Synergy with pyrvinium pamoate: No
[3]
  CI range: 0.588-0.878
[4]
  CI range: 0.468-0.887
[5]
  CI range: 0.458-0.875
[6]
  CI range: 0.130-0.874
[29]; [32]
  CI range: 0.568-0.895
[8]
  CI range: 0.309-0.886
[30]
  CI range: 0.407-0.742 and 0.337-0.809
[10]
  CI range: 0.058-0.361
[24]
  CI range: 0.694-0.756
[11]
  CI range: 0.014-0.783
[12]
  CI range: 0.326-0.892
[14]
  CI range: 0.443-0.859
[15]
  CI range: 0.459-0.775 and 0.472-0.882
[17]
  CI range: 0.506-0.861
[19]
  CI range: 0.314-0.798
[20]
  CI range: 0.693-0.877
[21]
  CI range: 0.439-0.845
[22]
  CI range: 0.329-0.832
[26]; [31]
  CI range: 0.130-0.882

## O=P1(N(CCCl)CCCl)NCCCO1 (stereo not shown) [Cyclophosphamide]
[6]
  CI range: 0.274-0.867
[24]
  CI range: 0.256-0.876
[17]
  CI range: 0.167-0.751
[20]
  CI range: 0.083-0.786
[22]
  CI range: 0.718-0.722
[26]
  CI range: Yes- (0.098-0.858)

## CC(=O)O[C@@]12CO[C@@H]1C[C@H](O)[C@@]1(C)C(=O)[C@H](O)C3=C(C)[C@@H](OC(=O)[C@H](O)[C@@H](NC(=O)OC(C)(C)C)c4ccccc4)C[C@@](O)([C@@H](OC(=O)c4ccccc4)[C@H]21)C3(C)C [Docetaxel]
[21]
  Synergy with pyrvinium pamoate: No

## C#Cc1cccc(Nc2ncnc3cc(OCCOC)c(OCCOC)cc23)c1 [Erlotinib]
[4]
  CI range: 0.308-0.883

## COc1cc([C@@H]2c3cc4c(cc3[C@@H](O[C@@H]3O[C@@H]5CO[C@@H](C)O[C@H]5[C@H](O)[C@H]3O)[C@H]3COC(=O)[C@H]23)OCO4)cc(OC)c1O [Etoposide]
[27]
  Synergy with pyrvinium pamoate: No
[3]
  CI range: 0.593-0.875
[29]
  Synergy with pyrvinium pamoate: No
[8]
  CI range: 0.487-0.623
[9]
  CI range: 0.716-0.836
[24]
  CI range: 0.763-0.891
[13]
  CI range: 0.107-0.751
[17]
  CI range: 0.281-0.794
[19]
  CI range: 0.717-0.864
[22]
  CI range: 0.677-0.883
[26]; [31]
  CI range: 0.638-0.834
